Consider 16 compounds from patent US5025036A, “Catechol carboxylic acids” (Hoffmann-La Roche Inc., priority 1989, dated 1991).

pIC50: −log10 of the molar value.

The target in this experiment is T1, Δ^5 -lipoxygenase from rat basophilic leukemia (RBL-1) cells (Rattus norvegicus, UniProt P12527).
T1 construct: The isolated cytosolic fraction was stored in liquid N2 for up to 8 weeks without loss of 5-LO enzyme activity; endogenous in cells; host or cells: RBL-1 cells (ATCC CRL 1378), 113,000×g supernatant (cytosol)
T1 sequence (P12527 1-673): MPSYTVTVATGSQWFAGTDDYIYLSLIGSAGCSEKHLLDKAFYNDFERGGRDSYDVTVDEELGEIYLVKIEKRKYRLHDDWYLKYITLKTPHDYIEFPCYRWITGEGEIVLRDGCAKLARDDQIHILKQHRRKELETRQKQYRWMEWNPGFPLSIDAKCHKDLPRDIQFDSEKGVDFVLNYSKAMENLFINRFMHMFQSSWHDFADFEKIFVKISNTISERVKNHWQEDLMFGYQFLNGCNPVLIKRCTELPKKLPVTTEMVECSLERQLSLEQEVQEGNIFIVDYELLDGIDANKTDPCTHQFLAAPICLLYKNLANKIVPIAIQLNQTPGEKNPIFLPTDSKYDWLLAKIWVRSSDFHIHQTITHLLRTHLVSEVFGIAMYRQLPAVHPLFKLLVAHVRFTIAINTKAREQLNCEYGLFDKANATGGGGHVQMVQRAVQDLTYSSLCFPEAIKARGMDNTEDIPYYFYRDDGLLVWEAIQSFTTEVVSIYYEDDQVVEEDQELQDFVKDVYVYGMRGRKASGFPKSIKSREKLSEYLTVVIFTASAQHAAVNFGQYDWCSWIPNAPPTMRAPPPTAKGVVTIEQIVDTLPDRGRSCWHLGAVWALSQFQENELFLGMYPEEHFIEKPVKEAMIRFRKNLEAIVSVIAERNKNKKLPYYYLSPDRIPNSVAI
The experiment is described as follows: In vitro test for Δ^5-lipoxygenase inhibitors (5-HETE radioimmunoassay). Format: biochemical. Particulars: for inhibition at 0.1 µM: read-out: Inhib. of Δ^5 Lipoxygenase, % inhibition at 0.1 μM; for pIC50: RBL-1 5-LO, 5-HETE formation, read-out: Inhib. of Δ^5 Lipoxygenase IC50; for inhibition at 1 µM: read-out: Inhib. of Δ^5 Lipoxygenase, % inhibition at 1 μM. Here is the method: RBL-1 cells (CRL 1378) were obtained from the American Type Culture Collection, Rockville, MD. DMEM and glutamine were purchased from Flow Labs, McLean, Va. FBS (Gibco, Grand Island, N.Y.) was heat-inactivated for 1 hour at 56° C. Reagents for protein determinations were obtained from Biorad, Rockville Center, N.Y. Arachidonic acid (approx. 99%), ATP (disodium salt), BHT, dextran (clinical grade), tetrasodium EDTA, gelatin, gentamycin sulfate solution, reduced glutathione, 1 M HEPES buffer, indomethacin, NaCl, reduced NADPH, Trizma 7.2, and Trizma 8.5 were purchased from Sigma Chemical, St. Louis, Mo. CaCL2 dihydrate, Norit A charcoal, and citric acid monohydrate were obtained from Fisher Scientific, Pittsburgh, Pa. […] A synthetic 5-HETE standard was supplied by Dr. M. Rosenberger, Dept. of Medicinal Chemistry, Hoffmann La-Roche, Nutley, N.J.; [see Corey, E. J., and Hashimoto, S. (1981) Tet. […] Approximately 7-9 days after thawing, RBL-1 cells growing in log phase were seeded at a density of 7500 viable cells/ml in a closed 89-liter spinner flask. […] RBL-1 cells were harvested by centrifugation at 4° C. at 1500×g for 10 minutes and were washed 3 times with ice cold 0.05M tris-hCl, pH 7.2, tetrasodium EDTA (buffer 1). The cells were washed last in 0.05M Tris-HCl containing 14 μM indomethacin, 1 mM glutathione, 1.5 mM NaCl, and 1 mM tetrasodium EDTA (buffer 2), resuspended at a density of 5×108'/ml approximately 10 ml) and disrupted manually at 4° C. using a 40 ml Dounce (type A pestle) homogenizer. After 5 minutes of homogenization, 95% cell lysis was confirmed by phase contrast microscopy. The broken cells were diluted 1:2 with buffer 2 and centrifuged at 12,380×g for 10 minutes at 4° C. to pellet cellular debris and granules. The 12,380×g supernatant was centrifuged at 113,000×g for 60 minutes to pellet microsomes. The high-speed supernatant (5.9±0.48 mg/ml protein) was frozen immediately in 1 ml aliquots using a dry ice/acetone bath. The isolated cytosolic fraction was stored in liquid N2 for up to 8 weeks without loss of 5-LO enzyme activity. Compounds were dissolved at 25 mM concentration in DMSO, then diluted to final concentrations using 95% ethanol. For a typical enzyme assay, the partially purified 5-LO preparation was preincubated with drug or vehicle for 10 minutes at 30° C. The assay tubes were then transferred at a 37° C. water bath where they received arachidonic acid (8.25 μM final concentration) to initiate 5-LO activity. […] The samples were immediately cooled on ice and neutralized by dilution with 0.05M Tris-HCl, pH 8.5, which contained 25 mg/1 BHT. A boiled cytosol control was placed at the end of each assay to emasure non-enzymatic oxidation of arachidonic acid. […] Under the assay conditions described, the 5-LO catalyzed the conversion of arachidonic acid to 5-HPETE which, as a consequence of peroxidase activity, was reduced to 5-HETE. A specific radioimmunoassay was employed to quantitate the amount (pmoles) of 5-HETE formed during the enzyme reaction. To prepare the immunogen, Dr. M. Rosenberger (Dept. of Medicinal Chemistry) converted the racemic 5-HETE lactone (Corey, E. J., and Hashimoto, S. (1981) Tet. Letters, 22, 299-302) to its hydrazine derivative. The hydrazide was conjugated to thiolated Keyhole Limpet Hemocyanin (Young, […]., and Rokach, J. (1982) Prostaglandins 23, 603-613) using N-ethyl-maleimide as previously described for LTB4 by (Young, R., N, Zomboni, R. and Rokach, J. 91983) Prostaglandins, 26, 605-613). New Zealand White rabbits received multiple intradermal injections on their backs with […] conjugate emulsified in complete Freund's adjuvant. A schedule of injections reported by Salmon (Salmon, J. A. (1978) Prostaglandins, 15, 383-397) was followed. After the monthly i.p. booster injections, blood was obtained from the marginal ear vein 5-7 days later and assessed for antibody titer. […]

By inhibition is commonly meant the change of the read-out against control, counted positive when it falls. In the case of `CCCc1c(OCCCCc2cccc(O)c2O)ccc(C(C)=O)c1O` [1-[2-Hydroxy-4-[4-(2,3-dihydroxyphenyl)butoxy]-3-propylphenyl]ethanone], the inhibition at 0.01 µM (read-out: Inhib. of Δ^5 Lipoxygenase, % inhibition at 0.01 μM) amounted to 48%.

Regarding `CCCc1c(OCCCCCCc2ccc(C(C)C)c(O)c2O)ccc(C(C)=O)c1O` [1-[2-hydroxy-4 [6-[2,3 dihydroxy-4-(1-methylethyl)phenyl]hexyloxy]-3 propylphenyl]ethanone], the inhibition at 0.1 µM is 35%.

What is called pIC50 is the negative decadic logarithm of the IC50, by convention in mol/L. Take `CCCc1c(OCCCCCCc2cccc(O)c2O)ccc(C(C)=O)c1O` [1-[2-hydroxy-4-[6-(2,3-dihydroxyphenyl)hexyloxy]-3-propylphenyl]ethanone]: the negative-log IC50 (pIC50) is 7.52.

Turning to `CCCc1c(OCCCc2ccc(O)c(O)c2)ccc(C(=O)O)c1O` [4-[3-(3,4-Dihydroxyphenyl)propoxy]-2-hydroxy-3-propylbenzoic acid], the inhibition at 1 µM is 97%.

Take `CCCc1c(OCCCCc2cccc(O)c2O)ccc(C(=O)O)c1O` [4-[4-(2,3-dihydroxyphenyl)butoxy]-2-hydroxy-3-propylbenzoic acid]: the negative-log IC50 (pIC50) was 7.05.

Take `CCCc1c(OCCCCCc2cccc(O)c2O)ccc(C(=O)O)c1O` [4-[5-(2,3-Dihydroxyphenyl)pentyloxy]-2-hydroxy-3-propylbenzoic acid]: the pIC50 was 8.22.

For `CCCc1c(OCCCCCCc2cccc(O)c2O)ccc(C(=O)OCC)c1O` [4-[6-(2,3-Dihydroxyphenyl)hexyloxy]-2-hydroxy-3-propylbenzoic acid ethyl ester], the inhibition at 1 µM amounted to 100%.

For `CCCc1c(OCCCCCCc2cccc(O)c2O)ccc(C(=O)O)c1O` [4-[6-(2,3-Dihydroxyphenyl)hexyloxy]-2-hydroxy-3-propylbenzoic acid], the pIC50 was 7.70.

Turning to `O=C(O)c1ccc(OCCCCCCc2cccc(O)c2O)cc1O` [4-[6-(2,3-Dihydroxyphenyl)hexyloxy]-2-hydroxybenzoic acid], the pIC50 was 6.49.

Regarding `O=C(O)c1ccc(OCCCCCCc2cccc(O)c2O)cc1` [4-[6-(2,3-Dihydroxyphenyl)hexyloxy]benzoic acid], the pIC50 is 6.77.

Consider `CCCc1c(OCCCCCCc2ccc(O)c(O)c2)ccc(C(=O)O)c1O` [4-[6-(3,4-dihydroxyphenyl)hexyloxy]-2-hydroxy-3-propylbenzoic acid], for which the negative-log IC50 (pIC50) was 8.30.

With `CCCc1c(OCCCCCCc2ccc(C(C)C)c(O)c2O)ccc(C(=O)O)c1O` [4-[6-[2,3-dihydroxy-4-(1-methylethyl)phenyl]hexyloxy]-2-hydroxy-3-propylbenzoic acid], the negative-log IC50 (pIC50) is 7.00.

For `CCCc1c(OCCCCCCCc2cccc(O)c2O)ccc(C(=O)O)c1O` [4-[7-(2,3-dihydroxyphenyl)heptyloxy]-2-hydroxy-3-propylbenzoic acid], the pIC50 is 8.30.

With `CCCc1c(OCCCCCCCCc2cccc(O)c2O)ccc(C(=O)O)c1O` [4-[8-(2,3-dihydroxyphenyl)octyloxy]-2-hydroxy-3-propylbenzoic acid], the inhibition at 0.1 µM was found to be 62%.

For the compound `CCCc1c(OCCCCCCCCCCc2cccc(O)c2O)ccc(C(=O)O)c1O` [4-[10-(2,3-dihydroxyphenyl)decyloxy]-2-hydroxy-3-propylbenzoic acid], the pIC50 is 7.70.

Consider `CCCc1c(O)c(C(=O)O)cc(Cl)c1OCCCCCCc1cccc(O)c1O` [5-Chloro-2-hydroxy-4-[6-(2,3-dihydroxyphenyl]hexyloxy]-3-propylbenzoic acid], for which the inhibition at 0.1 µM was 48%.
